Laboratory results from patent US9844542B2, “Substituted imidazopyridine and triazolopyridine compounds as negative allosteric modulators of mGluR5” (Vanderbilt University, priority 2013, dated 2017).
pIC50: −log10 of the molar value. Several values for one entry are separate records, joined by “and”; a condition that tells them apart may be missing. Equal values may be shown once.

What follows are compounds tested against T1, rat mGluR5 (Rattus norvegicus, UniProt P31424) (assay: mGluR5 calcium mobilization assay (FDSS, Fluo-4) in HEK 293A cells stably expressing rat mGluR5). Conditions: HEK cells transfected with rat mGluR5; antagonism of glutamate EC80 response; ± = standard error of at least three experiments.
T1 construct: expressed in transfected cells
Type: cell-based
Experimental: Human embryonic kidney (HEK) cells transfected with rat or human mGluR5 were plated in clear bottom assay plates for assay in a Functional Drug Screening System (FDSS). The cells were loaded with a Ca^2+-sensitive fluorescent dye (e.g., Fluo-4), and the plates were washed and placed in the FDSS instrument. Test compound was applied to cells 3 seconds after baseline readings were taken. Cells were incubated with the test compounds for 140 seconds and then stimulated with an EC20 concentration of an mGluR5 agonist (e.g., glutamate, 3,5-dihydroxyphenylglycine, or quisqualate); 60-80 seconds later an EC80 concentration of agonist was added and readings taken for an additional 40 seconds. Data were collected at 1 Hz. […] Concentration response curves were generated using a four parameter logistical equation.
The above described assay was operated in two modes. In the first mode (utilizing a triple add protocol), a range of concentrations of the present compounds were added to cells, followed by two single fixed concentrations of agonist (EC20 followed by EC80). If a compound acted as a potentiator, an EC50 value for potentiation of the EC20 response and a maximum extent of potentiation by the compound at this concentration of agonist was determined by non-linear curve fitting. If a compound acted as an antagonist, an IC50 value for antagonism of the EC80 response and a maximum extent of antagonism by the compound at this concentration of agonist was determined by non-linear curve fitting. In the second mode (utilizing a double add protocol), several fixed concentrations of the present compounds were added to various wells on a plate, followed by a range of concentrations of agonist for each concentration of present compound; the EC50 values for the agonist at each concentration of compound were determined by nonlinear curve fitting. A decrease in the EC50 value of the agonist with increasing concentrations of the present compounds (a leftward shift of the agonist concentration-response curve) is an indication of the degree of mGluR5 positive allosteric modulation at a given concentration of the present compound. An increase in the EC50 value of the agonist with increasing concentrations of the present compounds (a rightward shift of the agonist concentration response curve) is an indication of the degree of mGluR5 antagonism at a given concentration of the present compound. The second mode also indicates whether the present compounds also affect the maximum response to mGluR5 to agonists.
The mGluR5 activity was determined using the calcium mobilization assays in human embryonic kidney cells as described herein below, wherein the human embryonic kidney cells were transfected with rat mGluR5. The mGluR5 activity data for some compounds are shown as the average of at least three experiments with the standard error in these cases. If no error is indicated for the mGluR5 activity, the values given represent the results from a single experiment or the average of two experiments. The compounds in Table 1 were synthesized with methods identical or analogous to those shown herein. The requisite starting materials were commercially available, described in the literature, or readily synthesized by one skilled in the art of organic synthesis.
GluMax is the amplitude of response in the presence of 30 μM test compound as a percentage of maximal response (100 μM glutamate). Partial antagonists display concentration-response curves (CRCs) that plateau above 10%.
The preparation of rat mGluR5 stable cell-lines is as previously described (e.g. see Romano et al. J Biol. Chem. 1996 Nov. 8; 271(45):28612-6).

T1 sequence (P31424 21-1171 isoform P31424-2 limits assumed): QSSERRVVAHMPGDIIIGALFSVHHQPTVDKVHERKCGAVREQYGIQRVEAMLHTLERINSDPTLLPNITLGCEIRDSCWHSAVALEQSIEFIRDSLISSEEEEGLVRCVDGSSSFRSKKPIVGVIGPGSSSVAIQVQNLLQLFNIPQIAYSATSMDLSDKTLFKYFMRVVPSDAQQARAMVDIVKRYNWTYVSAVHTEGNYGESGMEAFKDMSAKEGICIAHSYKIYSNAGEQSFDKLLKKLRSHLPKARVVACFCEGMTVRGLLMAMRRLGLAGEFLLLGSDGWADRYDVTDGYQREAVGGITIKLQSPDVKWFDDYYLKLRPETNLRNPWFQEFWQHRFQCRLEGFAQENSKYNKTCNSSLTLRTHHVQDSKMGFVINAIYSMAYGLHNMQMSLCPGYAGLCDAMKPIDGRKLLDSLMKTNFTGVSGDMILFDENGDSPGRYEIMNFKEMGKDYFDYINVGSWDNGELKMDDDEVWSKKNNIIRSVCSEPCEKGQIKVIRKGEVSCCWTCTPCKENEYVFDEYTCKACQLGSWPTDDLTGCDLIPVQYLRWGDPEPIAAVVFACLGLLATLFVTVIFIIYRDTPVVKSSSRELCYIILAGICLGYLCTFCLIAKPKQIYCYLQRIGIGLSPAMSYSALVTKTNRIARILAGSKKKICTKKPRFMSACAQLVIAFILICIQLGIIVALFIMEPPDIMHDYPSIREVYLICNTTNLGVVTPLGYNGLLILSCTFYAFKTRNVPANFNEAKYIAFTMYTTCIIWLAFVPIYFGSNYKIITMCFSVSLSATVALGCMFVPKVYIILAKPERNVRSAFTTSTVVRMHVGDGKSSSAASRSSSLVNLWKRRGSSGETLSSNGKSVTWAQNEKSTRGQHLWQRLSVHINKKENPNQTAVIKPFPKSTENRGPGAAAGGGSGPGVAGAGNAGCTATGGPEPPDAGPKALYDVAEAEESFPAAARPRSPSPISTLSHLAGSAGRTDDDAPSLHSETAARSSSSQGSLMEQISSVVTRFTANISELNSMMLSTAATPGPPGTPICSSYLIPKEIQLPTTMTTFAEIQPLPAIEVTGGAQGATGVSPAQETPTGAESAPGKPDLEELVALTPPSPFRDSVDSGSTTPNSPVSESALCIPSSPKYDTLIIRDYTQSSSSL

Going from `Cc1csc(NC(=O)c2cc(Oc3cncc(F)c3)cn3ncnc23)n1` to `COc1cncc(Oc2cc(C(=O)Nc3nc(C)cs3)c3ncnn3c2)c1`, the pIC50 falls from 7.31 to 6.86 (0.45 log units).

First: Cc1cccc(NC(=O)c2cc(Oc3cncc(F)c3)cn3cnnc23)n1
Second: CCc1cccc(NC(=O)c2cc(Oc3cncc(F)c3)cn3cnnc23)n1
The pIC50 of the first is 0.37 log units higher: 7.14 for the first, 6.77 for the second.

Going from `O=C(Nc1nc(C(F)(F)F)cs1)c1cc(Oc2cncnc2)cn2ncnc12` to `O=C(Nc1nc(C2CC2)cs1)c1cc(Oc2cncnc2)cn2ncnc12`, the pIC50 rises from 6.27 to 6.79 (0.52 log units). The second is the more potent here.

First: Cc1nc2c(C(=O)Nc3cccc(F)n3)cc(Oc3cncc(F)c3)cn2n1
Second: Cc1nc2c(C(=O)Nc3ccc(F)c(C)n3)cc(Oc3cncc(F)c3)cn2n1
The pIC50 of the first is 0.32 log units higher: 6.39 for the first, 6.07 for the second.

Going from `[2H]c1nc(NC(=O)c2cc(Oc3cnc(C)nc3)cn3cnnc23)c([2H])c([2H])c1[2H]` to `[2H]c1nc(NC(=O)c2cc(Oc3cncnc3)cn3cnnc23)c([2H])c([2H])c1[2H]`, the pIC50 rises from 5.10 to 6.33 (1.23 log units). The second is the more potent here.

Going from `COc1cncc(Oc2cc(C(=O)Nc3cccc(C)n3)c3nccn3c2)c1` to `COc1cncc(Oc2cc(C(=O)Nc3ccc(F)cn3)c3nccn3c2)c1`, the pIC50 rises from 7.10 to 7.40 (0.30 log units). The second is the more potent here.

`Cc1cccc(NC(=O)c2cc(Oc3cnc(F)c(F)c3)cn3ncnc23)n1` and `Cc1cccc(NC(=O)c2cc(Oc3cncc(Cl)c3)cn3ncnc23)n1` are the same in pIC50: 6.89 for the first, 6.89 for the second.

First: Cc1csc(NC(=O)c2cc(Oc3cnc(C)nc3)cn3ccnc23)n1
Second: Cc1csc(NC(=O)c2cc(Oc3cncc(Cl)c3)cn3ccnc23)n1
The pIC50 of the first is 0.78 log units lower: 5.96 for the first, 6.74 for the second.

Compared with `COc1cccc(NC(=O)c2cc(Oc3cnc(C)nc3)cn3cnnc23)n1`, `COc1cccc(NC(=O)c2cc(Oc3cncnc3)cn3cnnc23)n1` is higher in pIC50: less than 5.00 for the first, 6.79 for the second. The second is the more potent here.

Compared with `CCc1cccc(NC(=O)c2cc(Oc3cncc(OC)c3)cn3cnnc23)n1` [drawing 287], `CCc1cccc(NC(=O)c2cc(Oc3cncc(Cl)c3)cn3cnnc23)n1` is higher in pIC50: less than 5.00 for the first, 5.87 for the second. The second is the more potent here.

First: Cc1cncc(Oc2cc(C(=O)Nc3ccc(F)cn3)c3ncnn3c2)c1
Second: O=C(Nc1ccc(F)cn1)c1cc(Oc2cncc(Cl)c2)cn2ncnc12
The pIC50 of the first is 0.38 log units lower: 7.03 for the first, 7.41 for the second. The second is the more potent here.

Going from `COc1cncc(Oc2cc(C(=O)Nc3nc(C)cs3)c3nccn3c2)c1` to `Cc1csc(NC(=O)c2cc(Oc3cncc(Cl)c3)cn3cnnc23)n1`, the pIC50 falls from 7.18 to 6.18 (1.00 log units).

`Cc1csc(NC(=O)c2cc(Oc3cccnc3)cn3ncnc23)n1` and `O=C(Nc1cccc(F)n1)c1cc(Oc2cccnc2)cn2ncnc12` are within 0.2 log units of each other in pIC50: 7.37 for the first, 7.49 for the second.

First: O=C(Nc1ccccn1)c1cc(Oc2cncc(Cl)c2)cn2cnnc12
Second: N#Cc1cncc(Oc2cc(C(=O)Nc3ccccn3)c3nncn3c2)c1
The pIC50 of the first is 0.58 log units higher: 6.75 for the first, 6.17 for the second. The first is the more potent here.

First: Cc1ccc(NC(=O)c2cc(Oc3cncc(F)c3)cn3ccnc23)nc1
Second: Cc1ccc(NC(=O)c2cc(Oc3cncc(F)c3)cn3c(C)nnc23)nc1
The pIC50 of the first is 1.44 log units higher: 7.32 for the first, 5.88 for the second.

Going from `O=C(Nc1cccc(F)n1)c1cc(Oc2cncnc2)cn2ncnc12` to `Cc1cccc(NC(=O)c2cc(Oc3cncnc3)cn3ncnc23)n1`, the pIC50 falls from 6.93 to 6.51 (0.42 log units).

First: CCc1cccc(NC(=O)c2cc(Oc3cncc(Cl)c3)cn3ncnc23)n1
Second: Cc1cncc(Oc2cc(C(=O)Nc3cccc(F)n3)c3ncnn3c2)c1
The pIC50 of the first is 0.47 log units lower: 6.58 for the first, 7.05 for the second. The second is the more potent here.

Compared with `COc1cncc(Oc2cc(C(=O)Nc3cccc(F)n3)c3nncn3c2)c1`, `O=C(Nc1cccc(F)n1)c1cc(Oc2cncnc2)cn2cnnc12` is 1.25 log units higher in pIC50: 5.38 for the first, 6.63 for the second.

First: Cc1ncc(Oc2cc(C(=O)Nc3ccccn3)c3nncn3c2)cn1
Second: O=C(Nc1ccccn1)c1cc(Oc2cncc(O)c2)cn2ncnc12
The pIC50 of the first is 2.33 log units lower: 5.03 for the first, 7.36 for the second. The second is the more potent here.

Compared with `Cc1ccc(NC(=O)c2cc(Oc3cncnc3)cn3ncnc23)nc1`, `COc1ccc(NC(=O)c2cc(Oc3cncc(F)c3)cn3ncnc23)nc1` is 0.31 log units higher in pIC50: 6.86 for the first, 7.17 for the second. The second is the more potent here.

In the case of `[2H]c1nc(NC(=O)c2cc(Oc3cncc(Cl)c3)cn3ncnc23)c([2H])c([2H])c1[2H]`, the pIC50 was 7.37.

In the case of `O=C(Nc1ccc(F)cn1)c1cc(Oc2cncc(F)c2)cn2ncnc12` [drawing 179], the pIC50 was 7.64 and 7.60.
With `O=C(Nc1ccc(F)cn1)c1cc(Oc2cncnc2)cn2ncnc12` [drawing 195] the pIC50 was 7.00 and 7.12.
